Test [1] relates to R4A antibody. As to the kind of experiment: R4A binding to mouse kidney glomeruli in situ. The following applies: for inhibition of R4A binding to mouse kidney glomeruli: antibody pre-incubated, presence and absence of DNAse, FIG. 2A. The source says: FIG. 2A-2B. Compound 12W inhibits SLE autoantibody binding to glomeruli in situ. A) Data with R4A. B) Data with G11. From left to right: control, +DNAse, +Compound 12W, +DNAse+Compound 12W.
The kidney is a major target organ in SLE, with renal disease occurring in approximately 50% of patients. Glomerular deposition of circulating autoantibodies leads to a cascade of inflammatory events including renal infiltration by activated immune cells, activation of dendritic cells through Toll-like receptors and pro-inflammatory cytokine production (Bagavant and Fu 2009), which can culminate in end-stage renal disease. […] The R4A and G11 antibodies, as well as other pathogenic lupus antibodies, bind to both DNA and non-DNA antigens present in kidney glomeruli ex vivo. […] To test if Compound 12W could block the binding of the R4A antibody to its renal antigens in situ, the R4A antibody was incubated with mouse kidney glomeruli in the presence and absence of Compound 12W and its binding measured by detection with fluorescently-conjugated secondary antibodies.

For the next test, the system named is G11 human autoantibody. As to the kind of experiment: competitive ELISA, G11 autoantibody binding to its antigens. An excerpt:
(§1) FIG. 1A-1E. Compound 12W inhibits antigen recognition by systemic lupus erythematosus (SLE) autoantibodies. A) Structures of Compound 12W and WEY peptide (i.e., a tripeptide identical to the pentapeptide DWEYS (SEQ ID NO:1) less the carboxyl serine residue and the amino terminal aspartate of the pentapeptide). B) R4A mouse autoantibody binding to DWEYS (SEQ ID NO:1) peptide. C) R4A mouse autoantibody binding to DNA. D) G11 human autoantibody binding to DWEYS (SEQ ID NO:1) peptide. E) G11 human autoantibody binding to DNA. In B)-E), antibody binding in the presence of DWEYS peptide is shown in the right plot in each figure. Compound 12W inhibits binding as shown by the left plot in each figure.
In general terms: An ELISA detects its analyte on a solid surface through an enzyme-linked reagent.

Test [2] concerns autoantibodies present in serum from multiple lupus patients. As to the kind of experiment: competitive ELISA, lupus patient sera binding to DWEYS peptide. Also on record: species or system human. The following applies: sera pre-incubated, FIG. 4. On the procedure: FIG. 4. Compound 12W inhibits autoantibodies present in human SLE sera. Inhibition of human SLE sera binding to antigens in vitro.
(§2) The studies above tested the ability of Compound 12W to neutralize monoclonal antibodies derived from mouse or human lupus sera. It was next tested whether Compound 12W would be similarly effective in inhibiting the polyclonal autoreactivity present in lupus patient sera (FIG. 4). Sera from lupus patients were pre-incubated with the Compound 12W and binding to DWEYS (SEQ ID NO:1) and dsDNA was then assayed in a competitive ELISA. […] The ability of Compound 12W to inhibit binding of lupus sera to mouse kidney glomeruli was also assayed.

In another test the test system is R4A or G11 antibodies. Description: neurotoxicity of intracerebrally injected lupus autoantibodies, TUNEL staining. The class given is in vivo, mice. On the procedure:
FIG. 3. Compound 12W inhibits neurotoxicity of autoantibodies. The lupus autoantibodies caused significant neuronal apoptosis, as indicated by positive TUNEL staining (right panels).
Both R4A and G11 cause excitotoxic death of neurons in the mouse hippocampus (Zhang et al. 2009). Therefore, the ability of Compound 12W to negate the neurotoxicity of these autoantibodies was assayed. To test the neuroprotective potential of Compound 12W, mice were injected intracerebrally with R4A or G11 antibodies in the presence and absence of Compound 12W. As shown previously, the lupus autoantibodies caused significant neuronal apoptosis, as indicated by positive TUNEL staining (FIG. 3, upper and lower right panels). […] The neuroprotective dose of Compound 12W was 2 logs less than that previously used to achieve similar neuroprotection with the DWEYS (SEQ ID NO:1) peptide (Huerta et al. 2006).

In a further test the test system is R4A mouse autoantibody. As to the kind of experiment: competitive ELISA, R4A autoantibody binding to its antigens. The conditions noted are these: in vitro; for inhibition of R4A binding to DWEYS peptide: antigen DWEYS peptide, FIG. 1B; for inhibition of R4A binding to dsDNA: antigen dsDNA, FIG. 1C.
Description: as §1

For test [3], the system named is anti-dsDNA/NMDAR G11/R4A/human lupus antibody. Description: glomerular deposition of anti-dsDNA/NMDAR antibody in vivo. Also on record: species or system SCID mice. On the procedure:
In order to test if Compound 12W was also effective at protecting the kidney, a major target organ in lupus, from antibody deposition, the anti-dsDNA/NMDAR G11/R4A/human lupus antibody was administered to SCID mice in the absence and presence of Compound 12W and glomerular deposition was measured.

A further test concerns human lupus sera. Description: binding of lupus sera to mouse kidney glomeruli. The conditions noted are these: data not shown. The protocol: as §2
In another test the test system is anti-BSA antibody. Description: binding of an anti-BSA antibody to BSA (specificity control). The conditions noted are these: data not shown.
Test [4] has as its system R4A antibody. The conditions noted are these: literature; cited from earlier work.
The test system of test [5] is anti-dsDNA/NMDAR G11/R4A/human lupus antibody. The conditions noted are these: mice; Gaynor et al. 1997, Huerta et al. 2006; cited from earlier work.

Entries after “also recorded” stand apart in the source; their conditions may differ.

In the case of `CC(C)(C)NCC1CC2CCCCC2CN1CC(O)C(Cc1ccccc1)NCC(CCN)NCC1Nc2ccccc2CC1O` (centres unmarked) [Compound 12W, 2-((4-amino-1-(4-(3-((tert-butylamino)methyl)octahydroisoquinolin-2(1H)-yl)-3-hydroxy-1-phenylbutan-2-ylamino)butan-2-ylamino)methyl)-1,2,3,4-tetrahydroquinolin-3-ol], the “inhibition of R4A binding to mouse kidney glomeruli” value in the test on R4A antibody [1] was “Dramatically less binding was observed to both DNA and non-DNA antigens”. The “dose dependence of inhibition of R4A binding to glomeruli” value with R4A antibody [1] (data not shown) was “dependent on the dose”. Further, the “inhibition of G11 binding to DNA” value in the test on G11 human autoantibody (antigen DNA, FIG. 1E) is “inhibited G11 binding at similar concentrations to its effect on R4A binding”. Moreover, the “inhibition of G11 binding to DWEYS peptide” value with G11 human autoantibody (antigen DWEYS peptide, FIG. 1D) is on record as “inhibited G11 binding at similar concentrations to its effect on R4A binding”. For the same compound, in test [2], the “inhibition of lupus patient sera binding to DWEYS peptide” value is listed as “able to inhibit binding”. The “neuroprotective dose relative to that previously used with the DWEYS peptide” value with R4A or G11 antibodies (less than DWEYS peptide dose (Huerta et al. 2006)) came out at 2 logs. For the same compound, the “neuronal apoptosis caused by lupus autoantibodies (TUNEL staining)” value in the test with R4A or G11 antibodies (mice, intracerebral co-administration with R4A or G11, FIG. 3) is “blocked the neurotoxic effects of the lupus antibodies”. For the same compound, in the test with R4A mouse autoantibody, the “inhibition of R4A binding to DWEYS peptide” value was “able to inhibit R4A binding to these same antigens at nM concentrations” and the “inhibition of R4A binding to dsDNA” value is “able to inhibit R4A binding to these same antigens at nM concentrations”. The “autoantibody binding to renal tissue in vivo” value in [3] is “blocked autoantibody binding to renal tissue both ex vivo and in vivo”. Besides, in the test with human lupus sera, the “inhibition of binding of human lupus sera to mouse kidney glomeruli” value is recorded as “blocked binding of human lupus sera to kidney antigens”. In the test on anti-BSA antibody, the “inhibition of binding of an anti-BSA antibody to BSA” value is on record as “failed to inhibit binding”.
With “DWEYS peptide: pentapeptide DWEYS (SEQ ID NO:1), antigen/mimetope recognised by anti-dsDNA/NMDAR lupus autoantibodies (listed as Homo sapiens) [reference compound]”, in the test with R4A antibody [4], the “glomerular binding by R4A blocked (Gaynor et al 1997)” value was “can be blocked”. For the same compound, the “inhibition of R4A binding to mouse kidney glomeruli” value in the test on R4A antibody [1] is recorded as “could be mimicked by pre-incubation of the R4A antibody with the DWEYS (SEQ ID NO:1) peptide at mM concentrations”. In the test on R4A mouse autoantibody, the “inhibition of R4A binding to DWEYS peptide” value was “inhibitable by DWEYS (SEQ ID NO:1) peptide at mM concentrations” and the “inhibition of R4A binding to dsDNA” value is “inhibitable by DWEYS (SEQ ID NO:1) peptide at mM concentrations”. Further, in test [5], the “renal (and brain) deposition of anti-DNA/NMDAR antibodies in vivo, literature” value is “blocks renal and brain deposition of anti-DNA/NMDAR antibodies in mice; also recorded: able to block binding of the anti-dsDNA antibodies to kidneys in vivo”.

(Values after patent US9096576B2, “Compounds and methods for treatment of systemic lupus erythematosus” (The Feinstein Institute For Medical Research, priority 2010, dated 2015).)
